Test results: patent publication US10093666B2, “Deuterated O-sulfated beta lactam hydroxamic acids and deuterated N-sulfated beta lactams” (ARIXA PHARMACEUTICALS, INC., priority 2016, dated 2018)

Assays:
[1] = IV dosing of rats (cassette), plasma concentration vs. time by LC/MS/MS; details: for Ratio of b/a: ratio of plasma concentrations b to a (tigemonam), rats, IV
Description: A cohort of three rats was IV dosed using 2 mg/kg cassette IV dosing. […] Samples were withdrawn at various time points indicated below and processed using the following procedure. A 50 μL rat plasma sample was transferred to a well of a 96 well-plate, 20 μL of 0.1 ng/μL of Losartan (internal standard) in acetonitrile was added and 300 μL of acetonitrile/formic acid (100/2). The sample was then vortexed and centrifuged at 300 rpm for 5 minutes. Then 200 μL of the supernatant was mixed with 200 μL of double distilled water and was injected (5 μL) on a phenomex Polar-RP 80A column (75×2.0 mm), which was run at 30° C. at a flow rate of 600 μL/minute with a mobile phase A of acetonitrile/formic acid 100/0.02 and a mobile phase B of water/formic acid 100/0.02.
Each time point above represents a value obtained by averaging the measured plasma concentration of three rats.

[2] = Oral dosing of rats (cassette), plasma concentration vs. time by LC/MS/MS; details: for Ratio of b/a: ratio of plasma concentrations b to a (tigemonam), oral
Description: Samples were withdrawn at various time points indicated below and processed using the following procedure. A 50 μL rat plasma sample was transferred to a well of a 96 well-plate, 20 μL of 0.1 ng/μL of Losartan (internal standard) in acetonitrile was added and 300 μL of acetonitrile/formic acid (100/2). The sample was then vortexed and centrifuged at 300 rpm for 5 minutes. Then 200 μL of the supernatant was mixed with 200 μL of double distilled water and was injected (5 μL) on a phenomex Polar-RF 80A column (75×2.0 mm), which was run at 30° C. at a flow rate of 600 μL/minute with a mobile phase A of acetonitrile/formic acid 100/0.02 and a mobile phase B of water/formic acid 100/0.02. The eluate was analyzed by LC/MS/MS (electrospray) to provide the following values of plasma concentration vs. time listed in Table 1, which were then plotted to yield the graph illustrated in FIG. 2.
Each time point above represents a value obtained by averaging the measured plasma concentration of three rats. […] Other compounds may also be tested in the above assay.

[2H]C([2H])([2H])C1(C([2H])([2H])[2H])[C@H](NC(=O)/C(=N\OCC(=O)O)c2csc(N)n2)C(=O)N1OS(=O)(=O)O [b]
effect of deuteration of tigemonam on IV bioavailability ([1]; rat, in vivo, iv): no effect
plasma levels compared with tigemonam ([1]; rat, in vivo, iv, 1 mg/kg): almost identical
r = b − a ([1]; rat, in vivo, iv, 0.167 h): 235
r = b − a ([1]; rat, in vivo, iv, 0.5 h): 19
r = b − a ([1]; rat, in vivo, iv, 1 h): −31
r = b − a ([1]; rat, in vivo, iv, 2 h): 21
r = b − a ([1]; rat, in vivo, iv, 4 h): 2
r = b − a ([1]; rat, in vivo, iv, 6 h): −2
r = b − a ([1]; rat, in vivo, iv, 8 h): 0
r = b − a ([1]; rat, in vivo, iv, 24 h): 0
Ratio of b/a ([1]; 0.167 hours): 1.04
Ratio of b/a ([1]; 0.5 hours): 1.01
Ratio of b/a ([1]; 1 hours): .9
Ratio of b/a ([1]; 2 hours): 1.14
Ratio of b/a ([1]; 4 hours): 1.06
Ratio of b/a ([1]; 6 hours): .6
effect of deuteration of tigemonam on oral bioavailability ([2]; rat, in vivo, po): increase
plasma level greater than the plasma level of tigemonam ([2]; rat, in vivo, po, 5 mg/kg): at least 20%
r = b − a ([2]; rat, in vivo, po, 0.167 h): 266
r = b − a ([2]; rat, in vivo, po, 0.5 h): 694
r = b − a ([2]; rat, in vivo, po, 1 h): 531
r = b − a ([2]; rat, in vivo, po, 2 h): 175
r = b − a ([2]; rat, in vivo, po, 4 h): 55
r = b − a ([2]; rat, in vivo, po, 6 h): 4
r = b − a ([2]; rat, in vivo, po, 8 h): 1
r = b − a ([2]; rat, in vivo, po, 24 h): 0
Ratio of b/a ([2]; rats, 0.167 hours): 1.19
Ratio of b/a ([2]; rats, 0.5 hours): 1.24
Ratio of b/a ([2]; rats, 1 hours): 1.25
Ratio of b/a ([2]; rats, 2 hours): 1.26
Ratio of b/a ([2]; rats, 4 hours): 1.48
Ratio of b/a ([2]; rats, 8 hours): 1.25
Ratio of b/a ([2]; rats, C6 hours): 1.15
oral absorption compared with tigemonam ([2]; rats, oral cassette dosing, 5 mg/kg each): increased level
